From patent publication US9926302B2, “Heteroaryl substituted heterocyclyl sulfones” (priority 2014, dated 2018)

target: T1, Human CaV2.2 channels (Homo sapiens, UniProt Q00975); assay: Fluorescence assay for CaV2.2 channels using potassium depolarization to induce channel opening (FLIPR, Fluo 4); assay type: cell-based; details: 3 μM test compound; alternative assay buffer 30 mM KCl (inactivated channel state); HEK293 cells stably expressing human CaV2.2
T1 construct: expressed in transfected cells
T1 sequence (P54289 947-1103): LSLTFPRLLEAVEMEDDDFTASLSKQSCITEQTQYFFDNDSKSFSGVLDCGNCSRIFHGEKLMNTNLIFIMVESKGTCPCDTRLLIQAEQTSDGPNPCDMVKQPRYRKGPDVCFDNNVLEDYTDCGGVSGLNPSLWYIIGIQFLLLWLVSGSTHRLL
T1 sequence (P54289 25-946): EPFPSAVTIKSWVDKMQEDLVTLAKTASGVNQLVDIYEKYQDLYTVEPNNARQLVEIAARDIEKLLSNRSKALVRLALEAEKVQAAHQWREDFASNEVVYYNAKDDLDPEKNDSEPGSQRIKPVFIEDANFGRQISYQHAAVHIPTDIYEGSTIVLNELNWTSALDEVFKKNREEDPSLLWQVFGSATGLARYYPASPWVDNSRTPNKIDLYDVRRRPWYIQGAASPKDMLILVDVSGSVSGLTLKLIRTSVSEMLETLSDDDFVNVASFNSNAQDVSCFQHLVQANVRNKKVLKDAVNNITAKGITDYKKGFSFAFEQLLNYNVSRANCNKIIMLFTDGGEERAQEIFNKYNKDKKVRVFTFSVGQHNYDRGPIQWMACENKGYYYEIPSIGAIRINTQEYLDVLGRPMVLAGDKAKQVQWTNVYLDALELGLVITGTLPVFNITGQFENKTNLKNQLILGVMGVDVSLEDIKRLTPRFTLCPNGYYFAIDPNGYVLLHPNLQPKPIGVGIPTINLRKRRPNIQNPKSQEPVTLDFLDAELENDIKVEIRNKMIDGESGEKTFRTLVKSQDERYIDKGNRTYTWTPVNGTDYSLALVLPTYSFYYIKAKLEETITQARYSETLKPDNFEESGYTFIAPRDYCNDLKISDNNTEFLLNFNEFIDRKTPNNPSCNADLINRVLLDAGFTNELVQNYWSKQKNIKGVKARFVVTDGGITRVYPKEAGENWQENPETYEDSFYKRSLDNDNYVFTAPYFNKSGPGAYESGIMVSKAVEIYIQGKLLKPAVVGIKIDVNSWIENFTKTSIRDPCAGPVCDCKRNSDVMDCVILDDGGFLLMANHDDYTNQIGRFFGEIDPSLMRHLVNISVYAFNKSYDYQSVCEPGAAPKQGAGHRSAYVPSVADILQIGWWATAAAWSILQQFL
T1 sequence (P54284 whole entry, further chain): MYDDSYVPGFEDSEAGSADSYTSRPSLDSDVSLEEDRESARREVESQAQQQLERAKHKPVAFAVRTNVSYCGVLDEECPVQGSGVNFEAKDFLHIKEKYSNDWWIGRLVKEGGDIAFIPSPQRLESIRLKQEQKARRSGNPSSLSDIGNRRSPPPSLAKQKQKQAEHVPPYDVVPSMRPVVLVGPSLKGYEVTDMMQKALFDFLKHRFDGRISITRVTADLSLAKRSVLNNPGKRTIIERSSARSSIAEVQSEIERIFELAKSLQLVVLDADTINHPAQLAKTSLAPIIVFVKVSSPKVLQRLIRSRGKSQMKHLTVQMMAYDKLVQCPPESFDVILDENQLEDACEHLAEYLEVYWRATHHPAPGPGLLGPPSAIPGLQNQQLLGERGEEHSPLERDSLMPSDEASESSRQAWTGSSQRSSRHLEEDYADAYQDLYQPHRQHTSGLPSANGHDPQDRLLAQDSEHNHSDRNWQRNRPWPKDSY
T1 sequence (Q00975 whole entry): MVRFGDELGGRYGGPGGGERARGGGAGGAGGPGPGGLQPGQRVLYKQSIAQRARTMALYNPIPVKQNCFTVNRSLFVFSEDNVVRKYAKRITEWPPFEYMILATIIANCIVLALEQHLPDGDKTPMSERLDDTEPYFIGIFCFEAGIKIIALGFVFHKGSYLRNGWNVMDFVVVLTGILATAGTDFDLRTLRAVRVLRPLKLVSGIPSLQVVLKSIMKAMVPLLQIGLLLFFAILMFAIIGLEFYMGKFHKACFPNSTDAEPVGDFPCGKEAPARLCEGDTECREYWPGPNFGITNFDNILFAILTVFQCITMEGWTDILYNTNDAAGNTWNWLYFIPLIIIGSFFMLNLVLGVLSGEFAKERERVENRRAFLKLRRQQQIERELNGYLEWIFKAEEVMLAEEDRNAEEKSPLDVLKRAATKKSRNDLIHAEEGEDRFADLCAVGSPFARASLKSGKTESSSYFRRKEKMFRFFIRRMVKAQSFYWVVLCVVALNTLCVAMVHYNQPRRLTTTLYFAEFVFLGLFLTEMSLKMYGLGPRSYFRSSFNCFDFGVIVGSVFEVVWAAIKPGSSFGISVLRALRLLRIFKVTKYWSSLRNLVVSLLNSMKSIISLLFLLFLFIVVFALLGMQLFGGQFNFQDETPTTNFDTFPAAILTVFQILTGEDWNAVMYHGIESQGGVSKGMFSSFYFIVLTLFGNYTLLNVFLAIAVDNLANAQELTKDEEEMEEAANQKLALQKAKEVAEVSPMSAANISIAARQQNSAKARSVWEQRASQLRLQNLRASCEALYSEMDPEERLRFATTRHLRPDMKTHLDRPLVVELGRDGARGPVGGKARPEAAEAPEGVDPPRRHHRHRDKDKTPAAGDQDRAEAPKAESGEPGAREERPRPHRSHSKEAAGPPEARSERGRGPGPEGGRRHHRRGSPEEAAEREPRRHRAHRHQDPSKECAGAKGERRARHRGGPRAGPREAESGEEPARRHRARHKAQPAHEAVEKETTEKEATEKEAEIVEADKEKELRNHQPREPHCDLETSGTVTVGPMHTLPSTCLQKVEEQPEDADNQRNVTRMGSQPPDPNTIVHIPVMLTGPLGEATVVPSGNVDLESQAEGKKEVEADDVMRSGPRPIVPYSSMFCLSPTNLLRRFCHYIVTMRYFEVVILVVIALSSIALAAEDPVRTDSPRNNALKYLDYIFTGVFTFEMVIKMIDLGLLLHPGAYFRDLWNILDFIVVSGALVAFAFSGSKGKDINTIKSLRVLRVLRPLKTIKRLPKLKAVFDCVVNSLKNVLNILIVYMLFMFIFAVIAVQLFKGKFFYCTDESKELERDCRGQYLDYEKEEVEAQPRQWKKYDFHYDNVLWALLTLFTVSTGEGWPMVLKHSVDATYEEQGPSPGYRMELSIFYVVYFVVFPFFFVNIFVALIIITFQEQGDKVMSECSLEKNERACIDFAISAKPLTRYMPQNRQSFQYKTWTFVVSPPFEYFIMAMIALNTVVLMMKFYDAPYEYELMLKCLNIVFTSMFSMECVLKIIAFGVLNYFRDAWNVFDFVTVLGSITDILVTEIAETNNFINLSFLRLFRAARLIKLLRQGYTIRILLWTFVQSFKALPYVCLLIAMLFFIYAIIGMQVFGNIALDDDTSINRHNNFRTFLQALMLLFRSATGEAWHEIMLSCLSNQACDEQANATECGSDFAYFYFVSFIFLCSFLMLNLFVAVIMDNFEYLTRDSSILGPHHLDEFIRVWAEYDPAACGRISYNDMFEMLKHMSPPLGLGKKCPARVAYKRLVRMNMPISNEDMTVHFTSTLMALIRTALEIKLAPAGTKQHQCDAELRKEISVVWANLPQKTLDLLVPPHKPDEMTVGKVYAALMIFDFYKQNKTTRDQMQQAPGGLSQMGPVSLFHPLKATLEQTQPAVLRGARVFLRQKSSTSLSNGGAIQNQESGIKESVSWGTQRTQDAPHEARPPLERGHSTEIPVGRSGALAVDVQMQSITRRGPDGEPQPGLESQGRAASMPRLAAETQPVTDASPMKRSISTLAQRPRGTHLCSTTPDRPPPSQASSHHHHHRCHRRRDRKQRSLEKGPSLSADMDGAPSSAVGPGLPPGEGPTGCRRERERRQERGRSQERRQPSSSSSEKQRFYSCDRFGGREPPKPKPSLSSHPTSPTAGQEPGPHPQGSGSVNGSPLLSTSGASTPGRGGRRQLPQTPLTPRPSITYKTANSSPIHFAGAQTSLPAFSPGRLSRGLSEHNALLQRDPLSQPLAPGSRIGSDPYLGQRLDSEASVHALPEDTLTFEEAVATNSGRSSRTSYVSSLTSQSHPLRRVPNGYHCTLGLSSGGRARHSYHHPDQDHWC
Summary of the method: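 HEK293 cells stably co-expressing CaV2.2 with alpha2-delta and beta subunits plus Kir2.3, loaded with 2 μM Fluo 4 and pre-incubated 15 min at 25° C with compound in 1 mM or 30 mM KCl buffer (pH 7.4; latter promotes inactivated state). Depolarized by KCl addition; peak fluorescence amplitude normalized to baseline gives inhibition.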

In the case of `CC1(S(=O)(=O)c2cccc(C(F)(F)F)c2)CCOC(c2nnc(C(F)F)o2)C1` (single isomer, unassigned) [SC-124, 2-(Difluoro-methyl)-5-[4-methyl-4-[[3-(trifluoromethyl)phenyl]sulfonyl]-tetrahydro-pyran-2-yl]-[1,3,4]oxadiazole], the “Activity Category: %-Inhib (CaV2.2) @3 μM @30 mM KCl” value (“Activity Category: %-Inhib” for short) is reported as “C (%-Inhibition >40% up to ≤75%)”.
For `CC1(S(=O)(=O)c2cccc(Cl)c2)CCOC(c2ncc(S(C)(=O)=O)cc2Cl)C1` (stereo not shown) [SC-440, 3-Chloro-2-[4-[(3-chlorophenyl)sulfonyl]-4-methyl-tetrahydro-pyran-2-yl]-5-methylsulfonyl-pyridine], the “Activity Category: %-Inhib” value was “B (%-Inhibition >75% up to ≤95%)”.
In the case of `CC1(S(=O)(=O)c2cccc(C(F)(F)F)c2)CCOC(c2ncc(S(C)(=O)=O)cc2OC(F)F)C1` (stereo not shown) [SC-269, 3-(difluoromethoxy)-2-(4-methyl-4-((3-(trifluoromethyl)phenyl)sulfonyl)tetrahydro-2H-pyran-2-yl)-5-(methylsulfonyl)pyridine], the “Activity Category: %-Inhib” value is reported as “A (%-Inhibition >95%)”.

same assay, conditions: HEK293, 3 μM test compound; alternative assay buffer 30 mM KCl (inactivated channel state); HEK293 cells stably expressing human CaV2.2; read-out: Activity Category: %-Inhib (CaV2.2) @3 μM @30 mM KCl

First: CC1(S(=O)(=O)c2cccc(C(F)(F)F)c2)CCOC(c2ncc(C3CC3)cc2Cl)C1 (stereo not shown) [SC-425, 3-Chloro-5-cyclopropyl-2-[4-methyl-4-[[3-(trifluoromethyl)phenyl]sulfonyl]-tetrahydro-pyran-2-yl]-pyridine]
Second: COc1ncc(C2CC(C)(S(=O)(=O)c3cccc(C(F)(F)F)c3)CCO2)cn1 (stereo not shown) [SC-410, 2-Methoxy-5-[4-methyl-4-[[3-(trifluoromethyl)phenyl]sulfonyl]-tetrahydro-pyran-2-yl]-pyrimidine]
The inhibition at 3 µM of the first is higher: > 95% for the first, 40 to 75% for the second.

`COCCOc1ccc(C2CC(C)(S(=O)(=O)c3cccc(C(F)(F)F)c3)CCO2)cn1` (stereo not shown) [SC-404, 2-(2-Methoxy-ethoxy)-5-[4-methyl-4-[[3-(trifluoromethyl)phenyl]sulfonyl]-tetrahydro-pyran-2-yl]-pyridine] and `CC1(S(=O)(=O)c2cccc(C(F)(F)F)c2)CCOC(c2ccc(S(C)(=O)=O)cn2)C1` (stereo not shown) [SC-104, 5-Methylsulfonyl-2-[4-methyl-4-[[3-(trifluoromethyl)phenyl]sulfonyl]-tetrahydro-pyran-2-yl]-pyridine] fall in the same range of inhibition at 3 µM: 75 to 95% for the first, 75 to 95% for the second.

Compared with `CC1(S(=O)(=O)c2cc(F)cc(C(F)F)c2)CCOC(c2ncc(S(C)(=O)=O)cc2Cl)C1` (stereo not shown) [SC-216, 3-Chloro-2-[4-[[3-(difluoro-methyl)-5-fluoro-phenyl]sulfonyl]-4-methyl-tetrahydro-pyran-2-yl]-5-methylsulfonyl-pyridine], `CC1(S(=O)(=O)c2cccc(C(F)(F)F)c2)CCOC(c2ncc(C3CC3)cc2Cl)C1` (racemic) [SC-435, 3-Chloro-5-cyclopropyl-2-[4-methyl-4-[[3-(trifluoromethyl)phenyl]sulfonyl]-tetrahydro-pyran-2-yl]-pyridine] is higher in inhibition at 3 µM: 40 to 75% for the first, > 95% for the second.

Compared with `CC1(S(=O)(=O)c2cccc(C(F)(F)F)c2)CCOC(COc2ccc(C3CC3)nc2)C1` (single isomer, unassigned) [SC-118, 2-Cyclopropyl-5-[[4-methyl-4-[[3-(trifluoromethyl)phenyl]sulfonyl]-tetrahydro-pyran-2-yl]-methoxy]-pyridine], `COCCOc1ccc(C2CC(C)(S(=O)(=O)c3cccc(C(F)(F)F)c3)CCO2)cn1` (racemic) [SC-420, 2-(2-Methoxy-ethoxy)-5-[4-methyl-4-[[3-(trifluoromethyl)phenyl]sulfonyl]-tetrahydro-pyran-2-yl]-pyridine] is lower in inhibition at 3 µM: > 95% for the first, 75 to 95% for the second.

First: CCC1(S(=O)(=O)c2cccc(C(F)(F)F)c2)CCOC(c2cccnc2C)C1 (stereo not shown) [SC-312, 3-[4-Ethyl-4-[[3-(trifluoromethyl)phenyl]sulfonyl]-tetrahydro-pyran-2-yl]-2-methyl-pyridine]
Second: CC1(S(=O)(=O)c2cccc(C(F)(F)F)c2)CCOC(c2ncc(C(F)(F)F)cc2S(C)(=O)=O)C1 (stereo not shown) [SC-355, 3-Methylsulfonyl-2-[4-methyl-4-[[3-(trifluoromethyl)phenyl]sulfonyl]-tetrahydro-pyran-2-yl]-5-(trifluoromethyl)-pyridine]
The inhibition at 3 µM of the first is lower: 40 to 75% for the first, 75 to 95% for the second.
